How the values were obtained:
human Nav1.7 = human Nav1.7 (Homo sapiens (Human), UniProt Q15858); experiment: FRET-based membrane potential assay, recombinant human sodium channel Nav1.7; type: cell-based; conditions: HEK293 cells stably expressing recombinant human Nav1.7; depolarization with veratridine (EC80) + scorpion venom
Summary of the method: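 IC50 derived by four-parameter Hill fit of percent inhibition of depolarization, measured as peak F440-480/F565-625 ratio over baseline. Stable human Nav1.7 HEK293 cells, dye-loaded with CC2-DMPE and DiSBAC2(3)/VABSC-1 at room temperature, received compound 3 min ahead of veratridine (EC80) plus scorpion venom.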

human Nav1.8 = human Nav1.8 (Homo sapiens (Human), UniProt Q9Y5Y9); experiment: FRET-based membrane potential assay, recombinant human sodium channel Nav1.8; type: cell-based; conditions: HEK293 cells stably expressing recombinant human Nav1.8; depolarization with veratridine (EC80) + scorpion venom
Summary of the method: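 HEK293 cells stably expressing Nav1.8 were loaded with CC2-DMPE/DiSBAC2(3) FRET voltage dyes. Compounds were added 3 min before depolarization with EC80 veratridine plus scorpion venom. The F440-480/F565-625 ratio was read on FLIPR; IC50 came from four-parameter Hill fits.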

Chain of human Nav1.7 (Q15858 whole entry): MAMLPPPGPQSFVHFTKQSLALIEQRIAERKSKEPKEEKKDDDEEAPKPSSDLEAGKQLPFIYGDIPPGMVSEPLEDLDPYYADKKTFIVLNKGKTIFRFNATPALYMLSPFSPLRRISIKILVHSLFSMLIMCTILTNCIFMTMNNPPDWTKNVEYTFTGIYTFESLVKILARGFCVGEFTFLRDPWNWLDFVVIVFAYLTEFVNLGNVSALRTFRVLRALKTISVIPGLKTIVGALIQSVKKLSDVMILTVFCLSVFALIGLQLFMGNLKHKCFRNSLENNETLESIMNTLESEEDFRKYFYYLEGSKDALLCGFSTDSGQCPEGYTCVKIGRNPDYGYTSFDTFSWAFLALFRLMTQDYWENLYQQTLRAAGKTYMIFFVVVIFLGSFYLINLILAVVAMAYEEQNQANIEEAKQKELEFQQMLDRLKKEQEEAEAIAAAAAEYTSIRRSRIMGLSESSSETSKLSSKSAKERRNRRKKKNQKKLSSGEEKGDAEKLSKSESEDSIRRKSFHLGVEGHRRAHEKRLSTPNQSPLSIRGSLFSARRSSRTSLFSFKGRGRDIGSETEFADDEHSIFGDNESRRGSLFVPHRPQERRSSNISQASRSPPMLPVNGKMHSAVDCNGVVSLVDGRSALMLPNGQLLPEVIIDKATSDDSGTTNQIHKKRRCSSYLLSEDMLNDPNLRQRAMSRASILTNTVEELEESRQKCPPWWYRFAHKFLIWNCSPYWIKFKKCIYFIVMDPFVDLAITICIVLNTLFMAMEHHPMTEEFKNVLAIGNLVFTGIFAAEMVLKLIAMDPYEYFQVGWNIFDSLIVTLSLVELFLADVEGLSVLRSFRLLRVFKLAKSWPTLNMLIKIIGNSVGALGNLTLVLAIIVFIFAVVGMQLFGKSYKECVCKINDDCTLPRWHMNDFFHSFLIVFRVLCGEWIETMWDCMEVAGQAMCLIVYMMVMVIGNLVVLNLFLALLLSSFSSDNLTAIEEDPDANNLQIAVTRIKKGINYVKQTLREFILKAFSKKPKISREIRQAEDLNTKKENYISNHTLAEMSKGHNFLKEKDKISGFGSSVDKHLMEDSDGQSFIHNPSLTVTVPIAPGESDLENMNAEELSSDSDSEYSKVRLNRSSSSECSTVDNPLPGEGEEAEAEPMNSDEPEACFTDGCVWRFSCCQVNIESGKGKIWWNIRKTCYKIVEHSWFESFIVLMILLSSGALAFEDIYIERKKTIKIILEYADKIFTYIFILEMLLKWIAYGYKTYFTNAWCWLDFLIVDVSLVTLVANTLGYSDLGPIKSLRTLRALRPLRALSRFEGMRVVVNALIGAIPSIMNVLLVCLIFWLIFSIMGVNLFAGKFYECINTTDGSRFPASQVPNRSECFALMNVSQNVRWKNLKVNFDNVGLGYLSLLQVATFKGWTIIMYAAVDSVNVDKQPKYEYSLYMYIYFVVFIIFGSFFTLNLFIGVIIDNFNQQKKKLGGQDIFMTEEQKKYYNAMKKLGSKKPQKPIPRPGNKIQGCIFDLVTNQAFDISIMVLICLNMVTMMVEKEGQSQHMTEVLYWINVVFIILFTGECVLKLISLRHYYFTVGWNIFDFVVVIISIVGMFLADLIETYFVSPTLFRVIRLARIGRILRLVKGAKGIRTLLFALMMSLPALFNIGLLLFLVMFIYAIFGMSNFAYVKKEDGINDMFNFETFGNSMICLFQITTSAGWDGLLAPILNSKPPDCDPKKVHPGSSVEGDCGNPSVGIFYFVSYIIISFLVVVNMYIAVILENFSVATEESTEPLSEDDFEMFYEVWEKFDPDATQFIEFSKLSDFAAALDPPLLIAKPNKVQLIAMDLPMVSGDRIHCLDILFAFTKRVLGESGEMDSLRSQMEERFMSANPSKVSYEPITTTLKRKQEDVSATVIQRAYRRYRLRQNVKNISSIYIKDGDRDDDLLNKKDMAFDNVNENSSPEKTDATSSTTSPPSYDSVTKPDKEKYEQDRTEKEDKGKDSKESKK
Chain of human Nav1.8 (Q9Y5Y9 whole entry): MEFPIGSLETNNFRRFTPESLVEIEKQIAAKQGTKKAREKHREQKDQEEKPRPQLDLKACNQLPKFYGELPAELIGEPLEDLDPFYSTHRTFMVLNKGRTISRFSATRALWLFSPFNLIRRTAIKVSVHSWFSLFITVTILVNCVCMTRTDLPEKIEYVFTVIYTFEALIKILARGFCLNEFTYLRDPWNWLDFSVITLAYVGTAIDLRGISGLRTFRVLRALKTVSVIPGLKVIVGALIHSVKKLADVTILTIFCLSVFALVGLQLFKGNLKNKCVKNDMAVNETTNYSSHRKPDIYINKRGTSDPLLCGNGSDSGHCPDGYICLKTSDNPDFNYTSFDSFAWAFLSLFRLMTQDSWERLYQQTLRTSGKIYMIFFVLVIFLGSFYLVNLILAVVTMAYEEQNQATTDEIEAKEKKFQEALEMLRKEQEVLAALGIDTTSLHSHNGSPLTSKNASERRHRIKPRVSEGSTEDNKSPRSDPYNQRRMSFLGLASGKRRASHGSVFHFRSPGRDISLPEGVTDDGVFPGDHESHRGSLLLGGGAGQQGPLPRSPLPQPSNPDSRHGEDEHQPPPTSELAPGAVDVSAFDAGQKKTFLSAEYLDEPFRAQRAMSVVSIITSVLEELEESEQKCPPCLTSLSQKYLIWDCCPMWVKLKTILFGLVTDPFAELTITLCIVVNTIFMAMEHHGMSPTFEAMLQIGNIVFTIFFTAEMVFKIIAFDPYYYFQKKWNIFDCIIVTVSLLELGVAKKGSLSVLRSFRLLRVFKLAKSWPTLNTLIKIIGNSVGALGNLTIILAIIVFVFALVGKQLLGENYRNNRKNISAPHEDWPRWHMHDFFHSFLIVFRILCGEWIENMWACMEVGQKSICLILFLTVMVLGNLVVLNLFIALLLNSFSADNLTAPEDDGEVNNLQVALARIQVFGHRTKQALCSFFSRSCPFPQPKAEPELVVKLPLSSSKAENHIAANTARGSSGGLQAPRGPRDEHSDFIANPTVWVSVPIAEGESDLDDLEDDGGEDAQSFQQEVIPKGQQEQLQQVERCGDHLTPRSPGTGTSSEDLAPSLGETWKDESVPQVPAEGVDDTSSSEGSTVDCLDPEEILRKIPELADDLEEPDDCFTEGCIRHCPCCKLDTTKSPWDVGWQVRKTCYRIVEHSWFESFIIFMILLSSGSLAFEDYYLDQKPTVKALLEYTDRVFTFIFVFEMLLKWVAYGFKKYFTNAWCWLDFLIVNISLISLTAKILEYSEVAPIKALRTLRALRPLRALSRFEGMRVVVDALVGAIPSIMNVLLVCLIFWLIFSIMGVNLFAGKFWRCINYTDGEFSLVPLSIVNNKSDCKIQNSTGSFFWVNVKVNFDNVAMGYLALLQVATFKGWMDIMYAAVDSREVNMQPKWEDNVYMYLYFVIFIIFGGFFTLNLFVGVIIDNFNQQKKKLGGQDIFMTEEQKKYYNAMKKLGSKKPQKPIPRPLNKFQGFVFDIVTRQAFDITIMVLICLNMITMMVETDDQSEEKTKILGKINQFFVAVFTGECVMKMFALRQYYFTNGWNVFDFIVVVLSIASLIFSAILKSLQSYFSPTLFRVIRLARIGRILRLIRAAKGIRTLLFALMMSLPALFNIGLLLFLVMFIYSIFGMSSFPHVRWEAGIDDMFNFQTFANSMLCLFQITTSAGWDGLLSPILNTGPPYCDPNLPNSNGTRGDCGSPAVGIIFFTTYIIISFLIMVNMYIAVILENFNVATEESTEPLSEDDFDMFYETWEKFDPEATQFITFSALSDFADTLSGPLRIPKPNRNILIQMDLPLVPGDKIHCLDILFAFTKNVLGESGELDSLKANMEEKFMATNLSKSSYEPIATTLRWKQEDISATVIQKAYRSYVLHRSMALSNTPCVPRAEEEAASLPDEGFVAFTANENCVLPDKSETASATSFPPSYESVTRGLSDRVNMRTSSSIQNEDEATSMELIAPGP

| Structure (SMILES) | IC50 (human Nav1.7) [µM] | IC50 (human Nav1.8) [µM] |
| --- | --- | --- |
| Cc1noc(C(C)N2CCN(c3cccc4c3cnn4-c3ccccc3F)C2=O)n1 (racemic) [Example 46, 1-[1-(2-fluorophenyl)-1H-indazol-4-yl]-3-[1-(3-methyl-1,2,4-oxadiazol-5-yl)ethyl]imidazolidin-2-one] | 1.87 | 8.73 |
| C[C@H]1CCCN1C(=O)CN1CCN(c2cccc3c2cnn3-c2ccccc2F)C1=O [Example 15, 1-[1-(2-fluorophenyl)-1H-indazol-4-yl]-3-{2-[(2S)-2-methylpyrrolidin-1-yl]-2-oxoethyl}imidazolidin-2-one] | 0.625 | 1.81 |
| Cc1noc(C)c1CN1CCN(c2cccc3c2cnn3-c2ccccc2F)C1=O [Example 27, 1-[(3,5-dimethyl-1,2-oxazol-4-yl)methyl]-3-[1-(2-fluorophenyl)-1H-indazol-4-yl]imidazolidin-2-one] | 0.546 | 1.04 |
| O=C(CN1CCN(c2cccc3c2cnn3-c2ccccc2F)C1=O)N[C@@H]1CCOC1 [Example 55, 2-{3-[1-(2-fluorophenyl)-1H-indazol-4-yl]-2-oxoimidazolidin-1-yl}-N-[(3R)-tetrahydrofuran-3-yl]acetamide] | 2.24 | 5.28 |

From US9783527B2, “Indazole ureas and method of use” (AbbVie Inc., priority 2014, dated 2017)
